This note sets out measurements from US20060223996A1, “IL-12 modulatory compounds” (Synta Pharmaceuticals Corp., priority 2004, published 2006).

By IC50 is commonly meant the point on the concentration scale where inhibition reaches its midpoint.

Where only a bound is given, the exact number is not on record here.

This test deals with IL-12. In words: Human in vitro assay: inhibition of IL-12 production in IFNγ/LPS- or IFNγ/SAC-stimulated human PBMC or THP-1 cells (ELISA). The following applies: read-out: IC50 Range (representative in vitro IC50 data). Format: cell-based. The method, boiled down:
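Sandwich ELISA for IL-12 (p70, p40) on supernatants collected 18 h after stimulation gave IC50 values; MTS monitored viability. THP-1 cells: IFNγ 100 U/mL priming 22 h, SAC 0.025%. PBMC: IFNγ 30 U/mL for 22 h plus LPS 1 μg/mL, or IFNγ 100 U/mL plus SAC 0.01%. Final DMSO 0.25%.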
On the technique in general: An ELISA detects its analyte on a solid surface through an enzyme-linked reagent.

`O=C(Nc1ccc2c(c1)CCC2)Nc1cc(N2CCOCC2)nc(OCCN2CCOCC2)n1` [Compound 120, 1-Indan-5-yl-3-[6-morpholin-4-yl-2-(2-morpholin-4-yl-ethoxy)-pyrimidin-4-yl]-urea]: the IC50 was no less than 1000 nM.
The figure for `O=C(Nc1cccc(C(F)(F)F)c1)Nc1cc(N2CCOCC2)nc(OCCN2CCOCC2)n1` [Compound 121, 1-[6-Morpholin-4-yl-2-(2-morpholin-4-yl-ethoxy)-pyrimidin-4-yl]-3-(3-trifluoromethyl-phenyl)-urea] is less than 1000 nM; for `Cc1ccc(NC(=O)Nc2cc(N3CCOCC3)nc(OCCN3CCOCC3)n2)cc1C` [Compound 122, 1-(3,4-Dimethyl-phenyl)-3-[6-morpholin-4-yl-2-(2-morpholin-4-yl-ethoxy)-pyrimidin-4-yl]-urea] it is no less than 1000 nM.
The figure for `O=C(Nc1ccc2c(c1)OCO2)Nc1cc(N2CCOCC2)nc(OCCN2CCOCC2)n1` [Compound 123, 1-Benzo[1,3]dioxol-5-yl-3-[6-morpholin-4-yl-2-(2-morpholin-4-yl-ethoxy)-pyrimidin-4-yl]-urea] is no less than 1000 nM.
Consider `O=C(Nc1ccc2ccccc2c1)Nc1cc(N2CCOCC2)nc(OCCN2CCOCC2)n1` [Compound 124, 1-[6-Morpholin-4-yl-2-(2-morpholin-4-yl-ethoxy)-pyrimidin-4-yl]-3-naphthalen-2-yl-urea], for which the IC50 was no less than 1000 nM.
For `O=C(Nc1cccc(F)c1)Nc1cc(OCCN2CCOCC2)nc(N2CCOCC2)n1` [Compound 125, 1-(3-Fluoro-phenyl)-3-[2-morpholin-4-yl-6-(2-morpholin-4-yl-ethoxy)-pyrimidin-4-yl]-urea], the IC50 was less than 1000 nM.
The figure for `O=C(Nc1cccc(Cl)c1)Nc1cc(OCCN2CCOCC2)nc(N2CCOCC2)n1` [Compound 126, 1-(3-Chloro-phenyl)-3-[2-morpholin-4-yl-6-(2-morpholin-4-yl-ethoxy)-pyrimidin-4-yl]-urea] is less than 1000 nM.
The figure for `N#Cc1cccc(NC(=O)Nc2cc(OCCN3CCOCC3)nc(N3CCOCC3)n2)c1` [Compound 127, 1-(3-Cyano-phenyl)-3-[2-morpholin-4-yl-6-(2-morpholin-4-yl-ethoxy)-pyrimidin-4-yl]-urea] is less than 1000 nM; for `O=C(Nc1cccc([N+](=O)[O-])c1)Nc1cc(OCCN2CCOCC2)nc(N2CCOCC2)n1` [Compound 128, 1-[2-Morpholin-4-yl-6-(2-morpholin-4-yl-ethoxy)-pyrimidin-4-yl]-3-(3-nitro-phenyl)-urea] it is no less than 1000 nM.
The same measure for `O=C(Nc1cc(OCCN2CCOCC2)nc(N2CCOCC2)n1)Nc1ccccc1Br` [Compound 129, 1-(2-Bromo-phenyl)-3-[2-morpholin-4-yl-6-(2-morpholin-4-yl-ethoxy)-pyrimidin-4-yl]-urea]: no less than 1000 nM.
On to `O=C(Nc1cccc(I)c1)Nc1cc(OCCN2CCOCC2)nc(N2CCOCC2)n1` [Compound 130, 1-(3-Iodo-phenyl)-3-[2-morpholin-4-yl-6-(2-morpholin-4-yl-ethoxy)-pyrimidin-4-yl]-urea], for which the IC50 was less than 1000 nM.
The figure for `CCc1cccc(NC(=O)Nc2cc(OCCN3CCOCC3)nc(N3CCOCC3)n2)c1` [Compound 131, 1-(3-Ethyl-phenyl)-3-[2-morpholin-4-yl-6-(2-morpholin-4-yl-ethoxy)-pyrimidin-4-yl]-urea] is less than 1000 nM; for `O=C(Nc1cc(OCCN2CCOCC2)nc(N2CCOCC2)n1)Nc1ccccc1Cl` [Compound 132, 1-(2-Chloro-phenyl)-3-[2-morpholin-4-yl-6-(2-morpholin-4-yl-ethoxy)-pyrimidin-4-yl]-urea] it is less than 1000 nM.
The same measure for `Cn1c(=O)sc2cc(NC(=O)Nc3cc(OCCN4CCOCC4)nc(N4CCOCC4)n3)ccc21` [Compound 133, 1-(3-Methyl-2-oxo-2,3-dihydro-benzothiazol-6-yl)-3-[2-morpholin-4-yl-6-(2-morpholin-4-yl-ethoxy)-pyrimidin-4-yl]-urea]: no less than 1000 nM; for `Cn1c(=O)oc2cc(NC(=O)Nc3cc(OCCN4CCOCC4)nc(N4CCOCC4)n3)ccc21` [Compound 134, 1-(3-Methyl-2-oxo-2,3-dihydro-benzooxazol-6-yl)-3-[2-morpholin-4-yl-6-(2-morpholin-4-yl-ethoxy)-pyrimidin-4-yl]-urea]: no less than 1000 nM.
The same measure for `O=C(Nc1cc(OCCN2CCOCC2)nc(N2CCOCC2)n1)Nc1nc2ccc(Cl)cc2o1` [Compound 135, 1-(6-Chloro-benzooxazol-2-yl)-3-[2-morpholin-4-yl-6-(2-morpholin-4-yl-ethoxy)-pyrimidin-4-yl]-urea]: less than 1000 nM; for `Cc1ccc2cc(NC(=O)Nc3cc(OCCN4CCOCC4)nc(N4CCOCC4)n3)ccc2n1` [Compound 136, 1-(2-Methyl-quinolin-6-yl)-3-[2-morpholin-4-yl-6-(2-morpholin-4-yl-ethoxy)-pyrimidin-4-yl]-urea]: less than 1000 nM.
In the case of `O=C(Nc1ccc2[nH]ccc2c1)Nc1cc(OCCN2CCOCC2)nc(N2CCOCC2)n1` [Compound 137, 1-(1H-Indol-5-yl)-3-[2-morpholin-4-yl-6-(2-morpholin-4-yl-ethoxy)-pyrimidin-4-yl]-urea], the IC50 is less than 1000 nM.
The same measure for `O=C(Nc1cc(OCCN2CCOCC2)nc(N2CCOCC2)n1)Nc1cccc2c(O)cccc12` [Compound 138, 1-(5-Hydroxy-naphthalen-1-yl)-3-[2-morpholin-4-yl-6-(2-morpholin-4-yl-ethoxy)-pyrimidin-4-yl]-urea]: no less than 1000 nM.
The figure for `O=C(Nc1cc(OCCN2CCOCC2)nc(N2CCOCC2)n1)Nc1nc2ccc(Cl)cc2s1` [Compound 139, 1-(6-Chloro-benzothiazol-2-yl)-3-[2-morpholin-4-yl-6-(2-morpholin-4-yl-ethoxy)-pyrimidin-4-yl]-urea] is less than 1000 nM; for `O=C(Nc1cc(OCCN2CCOCC2)nc(N2CCOCC2)n1)Nc1cccc2ncccc12` [Compound 140, 1-[2-Morpholin-4-yl-6-(2-morpholin-4-yl-ethoxy)-pyrimidin-4-yl]-3-quinolin-5-yl-urea] it is no less than 1000 nM.
The same measure for `O=C(Nc1cc(OCCN2CCOCC2)nc(N2CCOCC2)n1)Nc1nnc(C2CC2)s1` [Compound 141, 1-(5-Cyclopropyl-[1,3,4]thiadiazol-2-yl)-3-[2-morpholin-4-yl-6-(2-morpholin-4-yl-ethoxy)-pyrimidin-4-yl]-urea]: no less than 1000 nM; for `Cc1ccc(-c2csc(NC(=O)Nc3cc(OCCN4CCOCC4)nc(N4CCOCC4)n3)n2)cc1` [Compound 142, 1-[2-Morpholin-4-yl-6-(2-morpholin-4-yl-ethoxy)-pyrimidin-4-yl]-3-(4-p-tolyl-thiazol-2-yl)-urea]: no less than 1000 nM.
As for `O=C(Nc1ccc(O)cc1)Nc1cc(OCCN2CCOCC2)nc(N2CCOCC2)n1` [Compound 143, 1-(4-Hydroxy-phenyl)-3-[2-morpholin-4-yl-6-(2-morpholin-4-yl-ethoxy)-pyrimidin-4-yl]-urea], the concentration for half-maximal inhibition (IC50) was less than 1000 nM.
The figure for `O=C(Nc1cc(OCCN2CCOCC2)nc(N2CCOCC2)n1)Nc1cc(-c2ccco2)n[nH]1` [Compound 144, 1-(5-Furan-2-yl-2H-pyrazol-3-yl)-3-[2-morpholin-4-yl-6-(2-morpholin-4-yl-ethoxy)-pyrimidin-4-yl]-urea] is no less than 1000 nM; for `Cc1c(C)n(C)c2ccc(NC(=O)c3cc(OCCN4CCOCC4)cc(N4CCOCC4)n3)cc12` [Compound 146, 6-Morpholin-4-yl-4-(2-morpholin-4-yl-ethoxy)-pyridine-2-carboxylic acid (1,2,3-trimethyl-1H-indol-5-yl)-amide] it is less than 1000 nM.
The same measure for `Cc1c(C)n(C)c2ccc(NC(=O)c3cc(N4CCOCC4)cc(N4CCOCC4)n3)cc12` [Compound 147, 4,6-Di-morpholin-4-yl-pyridine-2-carboxylic acid (1,2,3-trimethyl-1H-indol-5-yl)-amide]: less than 1000 nM; for `O=C(Nc1ccnc(Cl)c1)c1cc(OCCN2CCOCC2)nc(N2CCOCC2)n1` [Compound 149, 2-Morpholin-4-yl-6-(2-morpholin-4-yl-ethoxy)-pyrimidine-4-carboxylic acid (2-chloro-pyridin-4-yl)-amide]: no less than 1000 nM; for `NC(=O)c1ccc(NC(=O)c2cc(OCCN3CCOCC3)nc(N3CCOCC3)n2)nc1` [Compound 150, 2-Morpholin-4-yl-6-(2-morpholin-4-yl-ethoxy)-pyrimidine-4-carboxylic acid (5-carbamoyl-pyridin-2-yl)-amide]: less than 1000 nM.
With `O=C(Nc1ccnc(N2CCCC2)c1)c1cc(OCCN2CCOCC2)nc(N2CCOCC2)n1` [Compound 151, 2-Morpholin-4-yl-6-(2-morpholin-4-yl-ethoxy)-pyrimidine-4-carboxylic acid (2-pyrrolidin-1-yl-pyridin-4-yl)-amide], the half-maximal inhibitory concentration (IC50) is less than 1000 nM.
As to `CC(=O)c1cccc(NC(=O)c2cc(OCCN3CCOCC3)nc(N3CCOCC3)n2)c1` [Compound 152, 2-Morpholin-4-yl-6-(2-morpholin-4-yl-ethoxy)-pyrimidine-4-carboxylic acid (3-acetyl-phenyl)-amide], the IC50 is no less than 1000 nM.
Take `C/C(=N\N(C)C)c1cccc(NC(=O)c2cc(OCCN3CCOCC3)nc(N3CCOCC3)n2)c1` [Compound 153, (E)-N-(3-(1-(2,2-dimethylhydrazono)ethyl)phenyl)-2-morpholino-6-(2-morpholinoethoxy)pyrimidine-4-carboxamide]: the concentration for half-maximal inhibition (IC50) is less than 1000 nM.
The same measure for `CO/N=C(\C)c1cccc(NC(=O)c2cc(OCCN3CCOCC3)nc(N3CCOCC3)n2)c1` [Compound 154, (E)-N-(3-(1-(methoxyimino)ethyl)phenyl)-2-morpholino-6-(2-morpholinoethoxy)pyrimidine-4-carboxamide]: less than 1000 nM; for `CN(C)c1cccc(NC(=O)c2cc(OCCN3CCOCC3)cc(N3CCOCC3)n2)c1` [Compound 155, 6-Morpholin-4-yl-4-(2-morpholin-4-yl-ethoxy)-pyridine-2-carboxylic acid (3-dimethylamino-phenyl)-amide]: less than 1000 nM.
